What was measured:
GPR40 [1] = molecular target: T1, GPR40 (Homo sapiens, UniProt O14842); experiment: Cell-based aequorin assay (CHO cells stably expressing GPR40 and aequorin); parameters: expressed in transfected cells; host or cells: CHO cells stably transfected with GPR40 and aequorin; settings: activation of human GPR40, CHO cells, 0.01% HSA
Procedure, shortened: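 CHO cells stably co-expressing GPR40 and aequorin, loaded with coelenterazine (1 ug/mL, 2 h, room temperature) in H/HBSS with 20 mM Hepes and 0.01% fatty acid-free HSA. Serially diluted compounds added; luminescence recorded over 20 s. EC50 from dose-response of maximum relative light units.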

GPR40 [2] = molecular target: T1, GPR40; experiment: Inositol phosphate accumulation assay (A9_GPR40 cells); assay type: cell-based; parameters: expressed in transfected cells; host or cells: CHO cells stably transfected with GPR40 and aequorin; settings: inositol phosphate assay, A9_GPR40 cells, 1 hour; read-out: IP3 EC50
Procedure, shortened: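 [^3H] inositol phosphate accumulation was measured by SPA after 1 h compound exposure at 37° C in HBSS/10 mM LiCl containing HSA, ending with a 20 mM formic acid quench. The GPR40-transfected A9 cells had first been labelled overnight (16 h) with 1 μCi/mL ^3H-inositol.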

T1 sequence (O14842 whole entry): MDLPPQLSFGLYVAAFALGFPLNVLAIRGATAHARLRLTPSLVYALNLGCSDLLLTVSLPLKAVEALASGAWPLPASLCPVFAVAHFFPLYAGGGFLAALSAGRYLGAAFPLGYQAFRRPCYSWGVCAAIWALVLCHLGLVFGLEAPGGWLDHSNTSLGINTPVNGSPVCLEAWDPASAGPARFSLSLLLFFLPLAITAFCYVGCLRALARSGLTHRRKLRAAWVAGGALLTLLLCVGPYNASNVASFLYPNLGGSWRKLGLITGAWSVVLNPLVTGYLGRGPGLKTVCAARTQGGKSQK

SMILES: CCC(CC(=O)O)c1cc(F)cc(OCc2ccc(-c3cc(OC)ccc3F)c(C3CCCC3(C)C)c2)c1 (single isomer, unassigned) [Example 88.1]
- EC50 (GPR40 [1]): 10 to 100 nM
- EC50 (GPR40 [2]): < 10 nM

SMILES: COc1ccc(F)c(-c2ccc(COc3cccc([C@@H](CC(=O)O)CC4CC4)c3)cc2SC(C)C)c1 (single isomer, unassigned) [Example 69.24, (R)-4-Cyclopropyl-3-[3-(2′-fluoro-2-isopropylsulfanyl-5′-methoxy-biphenyl-4-ylmethoxy)-phenyl]-butyric acid or (S)-4-cyclopropyl-3-[3-(2′-fluoro-2-isopropylsulfanyl-5′-methoxy-biphenyl-4-ylmethoxy)-phenyl]-butyric acid]
- EC50 (GPR40 [1]): 100 to 1000 nM
- EC50 (GPR40 [2]): 10 to 100 nM

SMILES: COc1ccc(F)c(-c2ccc(COc3cccc([C@@H](CC(=O)O)C4CC4)c3F)cc2[C@@H](OC)C2(C)CC2)c1 (single isomer, unassigned) [Example 83.22]
- EC50 (GPR40 [1]): 10 to 100 nM
- EC50 (GPR40 [2]): < 10 nM

SMILES: COc1ccc(F)c(-c2ccc(COc3cc(CCC(=O)O)ccn3)cc2C(C)(C)C)c1 [Example 72, 3-(2-(((2-(1,1-Dimethylethyl)-2′-fluoro-5′-(methyloxy)-1,1′-biphenyl-4-yl)methyl)oxy)-4-pyridinyl)propanoic acid]
- EC50 (GPR40 [1]): 100 to 1000 nM
- EC50 (GPR40 [2]): 1000 to 10000 nM

SMILES: COc1ccc(F)c(-c2ccc(COc3cccc([C@@H](CC(=O)O)C4CC4)c3)cc2[C@H]2OCCCC2(C)C)c1 (single isomer, unassigned) [Example 66.54]
- EC50 (GPR40 [1]): 100 to 1000 nM
- EC50 (GPR40 [2]): 10 to 100 nM

SMILES: COc1ccc(F)c(-c2ccc(COc3cccc(C(CC(=O)O)CC4CC4)c3)cc2C2CCCCC2(C)C)c1 (single isomer, unassigned) [Example 69.36]
- EC50 (GPR40 [1]): 100 to 1000 nM
- EC50 (GPR40 [2]): < 10 nM

SMILES: COc1ccc(F)c(-c2ccc(COc3cccc([C@@H](CC(=O)O)CC4CC4)c3)cc2CC(C)(C)C)c1 (single isomer, unassigned) [Example 69.16, (3R)-4-Cyclopropyl-3-(3-(((2-(2,2-dimethylpropyl)-2′-fluoro-5′-(methyloxy)-1,1′-biphenyl-4-yl)methyl)oxy)phenyl)butanoic acid or (3S)-4-cyclopropyl-3-(3-(((2-(2,2-dimethylpropyl)-2′-fluoro-5′-(methyloxy)-1,1′-biphenyl-4-yl)methyl)oxy)phenyl)butanoic acid]
- EC50 (GPR40 [1]): 10 to 100 nM
- EC50 (GPR40 [2]): 10 to 100 nM

SMILES: COc1ccc(F)c(-c2ccc(COc3cccc([C@@H](CC(=O)O)[C@@H]4C[C@H]4C)c3)cc2C(C)(C)C)c1 (single isomer, unassigned) [Example 93.1]
- EC50 (GPR40 [1]): 100 to 1000 nM
- EC50 (GPR40 [2]): 10 to 100 nM

SMILES: COC(c1cc(COc2cccc(C(CC(=O)O)C3CC3)c2)ccc1-c1ccccc1F)C(C)(C)C (single isomer, unassigned) [Example 66.33]
- EC50 (GPR40 [1]): 100 to 1000 nM
- EC50 (GPR40 [2]): 10 to 100 nM

SMILES: CCC(CC(=O)O)c1cccc(OCc2ccc(-c3cc(OC)ccc3F)c(C3=CCCC3(C)C)c2)c1 (single isomer, unassigned) [Example 65.1, (3R)-3-(3-(((2-(5,5-Dimethyl-1-cyclopenten-1-yl)-2′-fluoro-5′-(methyloxy)-1,1′-biphenyl-4-yl)methyl)oxy)phenyl)pentanoic acid or (3S)-3-(3-(((2-(5,5-dimethyl-1-cyclopenten-1-yl)-2′-fluoro-5′-(methyloxy)-1,1′-biphenyl-4-yl)methyl)oxy)phenyl)pentanoic acid]
- EC50 (GPR40 [1]): 100 to 1000 nM
- EC50 (GPR40 [2]): 10 to 100 nM

SMILES: CCC(CC(=O)O)c1cc(F)cc(OCc2ccc(-c3cc(OC)ccc3F)c(C3=CCCC3(C)C)c2)c1 (single isomer, unassigned) [Example 88.2, (3R)-3-(3-(((2-(5,5-Dimethyl-1-cyclopenten-1-yl)-2′-fluoro-5′-(methyloxy)-1,1′-biphenyl-4-yl)methyl)oxy)-5-fluorophenyl)pentanoic acid or (3S)-3-(3-(((2-(5,5-dimethyl-1-cyclopenten-1-yl)-2′-fluoro-5′-(methyloxy)-1,1′-biphenyl-4-yl)methyl)oxy)-5-fluorophenyl)pentanoic acid]
- EC50 (GPR40 [1]): 100 to 1000 nM
- EC50 (GPR40 [2]): 10 to 100 nM

SMILES: C[C@H](CC(=O)O)c1cccc(OCc2ccc(-c3cc(O)ccc3F)c(C(C)(C)C)c2)c1 (single isomer, unassigned) [Example 35, (3R)-3-(3-(((2-(1,1-Dimethylethyl)-2′-fluoro-5′-hydroxy-1,1′-biphenyl-4-yl)methyl)oxy)phenyl)butanoic acid or (3S)-3-(3-(((2-(1,1-dimethylethyl)-2′-fluoro-5′-hydroxy-1,1′-biphenyl-4-yl)methyl)oxy)phenyl)butanoic acid]
- EC50 (GPR40 [1]): 100 to 1000 nM
- EC50 (GPR40 [2]): 100 to 1000 nM

SMILES: CCC(CC(=O)O)c1cccc(OCc2ccc(-c3cc(OC)ccc3F)c(C(OC)C(C)(C)C)c2)c1F (single isomer, unassigned) [Example 77.4]
- EC50 (GPR40 [1]): 100 to 1000 nM
- EC50 (GPR40 [2]): < 10 nM

SMILES: COc1ccc(F)c(-c2ccc(COc3cccc([C@@H](CC(=O)O)C4CC4)c3)cc2CC(C)C)c1 (single isomer, unassigned) [Example 66.20, (3S)-3-Cyclopropyl-3-(3-(((2′-fluoro-5′-(methyloxy)-2-(2-methylpropyl)-1,1′-biphenyl-4-yl)methyl)oxy)phenyl)propanoic acid or (3R)-3-cyclopropyl-3-(3-(((2′-fluoro-5′-(methyloxy)-2-(2-methylpropyl)-1,1′-biphenyl-4-yl)methyl)oxy)phenyl)propanoic acid]
- EC50 (GPR40 [1]): 100 to 1000 nM
- EC50 (GPR40 [2]): 10 to 100 nM

SMILES: C=CC[C@H](CC(=O)O)c1cccc(OCc2ccc(-c3cccc(OC)c3)c(C(C)(C)C)c2)c1 (single isomer, unassigned) [Example 57, (3R)-3-(3-(((2-(1,1-dimethylethyl)-3′-(methyloxy)-1,1′-biphenyl-4-yl)methyl)oxy)phenyl)-5-hexenoic acid or (3S)-3-(3-(((2-(1,1-dimethylethyl)-3′-(methyloxy)-1,1′-biphenyl-4-yl)methyl)oxy)phenyl)-5-hexenoic acid]
- EC50 (GPR40 [1]): 100 to 1000 nM
- EC50 (GPR40 [2]): 100 to 1000 nM

SMILES: COc1ccc(F)c(-c2ccc(COc3cccc(C(C)CC(=O)O)c3)cc2C2CCC(C)(C)CC2)c1 (single isomer, unassigned) [Example 64.7, (3R)-3-(3-(((2-(4,4-Dimethylcyclohexyl)-2′-fluoro-5′-(methyloxy)-1,1′-biphenyl-4-yl)methyl)oxy)phenyl)butanoic acid or (3S)-3-(3-(((2-(4,4-dimethylcyclohexyl)-2′-fluoro-5′-(methyloxy)-1,1′-biphenyl-4-yl)methyl)oxy)phenyl)butanoic acid]
- EC50 (GPR40 [1]): 100 to 1000 nM
- EC50 (GPR40 [2]): 10 to 100 nM

SMILES: COc1ccc(F)c(-c2ccc(COc3cccc([C@@H](CC(=O)O)CC4CC4)c3)cc2[C@H]2OCCC2(C)C)c1 (single isomer, unassigned) [Example 69.44]
- EC50 (GPR40 [1]): 100 to 1000 nM
- EC50 (GPR40 [2]): 10 to 100 nM

SMILES: CCC[C@H](CC(=O)O)c1cccc(OCc2ccc(-c3cc(OC)ccc3F)c(C(C)(C)C)c2)c1 (single isomer, unassigned) [Example 43, (3R)-3-(3-(((2-(1,1-Dimethylethyl)-2′-fluoro-5′-(methyloxy)-1,1′-biphenyl-4-yl)methyl)oxy)phenyl)hexanoic acid or (3S)-3-(3-(((2-(1,1-dimethylethyl)-2′-fluoro-5′-(methyloxy)-1,1′-biphenyl-4-yl)methyl)oxy)phenyl)hexanoic acid]
- EC50 (GPR40 [1]): 100 to 1000 nM
- EC50 (GPR40 [2]): 100 to 1000 nM

From patent US8030354B2, “Substituted biphenyl GPR40 modulators” (Amgen Inc., priority 2007, dated 2011)
